According to patent publication US11649440B2, “Thermostabilized Amadoriases and uses thereof” (FONDAZIONE ISTITUTO ITALIANO DI TECNOLOGIA, priority 2017, dated 2023):

How the values were obtained:
[1] = molecular target: T1, Aspergillus fumigatus Amadoriase I variant SS03 (Ser67Cys + Pro121Cys), SEQ ID NO: 4 (Aspergillus fumigatus, UniProt O42629, P121C/S67C); experiment: Steady-state kinetics of Amadoriase variant SS03 towards fructosyl-lysine (glucosone formation at 322 nm); type: biochemical; settings: apparent, fructosyl-lysine 0.05 mM to 2 mM, 10 mM Tris HCl pH 7.4, 20 mM o-Phenylenediamine, three independent experiments
T1 construct: E. coli codon-optimised gene in bacterial (Novagen, pET-type) vector
Protocol: (§1) Enzymatic activity was followed by a continuous assay that detects glucosone formation over time from fructosyl-lysine at 322 nm. The 200 μl reaction mixture contained 10 mM Tris HCl pH 7.4, 20 mM o-Phenylenediamine, 2 mM fructosyl-lysine. After 1 minute of pre-incubation, the reaction was started adding 4.5 μg of enzyme, and the increase in absorbance at 322 nm (glucosone ε322=149.25 M^−1cm^−1) was monitored in a Spark10M (Tecan).
(§2) Apparent steady-state parameters for the enzymes over its natural substrate were determined by means of the assay described above, with fructosyl-lysine concentrations varied from 0.05 mM to 2 mM. Data points were obtained from three independent experiments. Kinetic parameters were calculated using a non-linear least-square fit of the data, and fitted with Eq. 1 (the Michaelis-Menten equation for hyperbolic substrate kinetics) using Hyperbola fit function of GraphPad Prism version 5.00 for Windows, GraphPad Software, La Jolla Calif. USA.
(§3) [formula] in which v, Vmax, S, and Km represent the steady state reaction rate, maximum reaction rate, substrate concentration, and Michaelis-Menten constant for the substrate, respectively.

[2] = molecular target: T2, Aspergillus fumigatus Amadoriase I variant SS17 (Asp295Cys + Lys303Cys), SEQ ID NO: 6 (Aspergillus fumigatus, UniProt O42629, D295C/K303C); experiment: Steady-state kinetics of Amadoriase variant SS17 towards fructosyl-lysine (glucosone formation at 322 nm); type: biochemical; settings: apparent, fructosyl-lysine 0.05 mM to 2 mM, 10 mM Tris HCl pH 7.4, 20 mM o-Phenylenediamine, three independent experiments
T2 construct: E. coli codon-optimised gene in bacterial (Novagen, pET-type) vector
Protocol: as §1, §2, §3

**Q.** `N[C@@H](CCCCNCC(=O)[C@@H](O)[C@H](O)[C@H](O)CO)C(=O)O` [fructosyl-lysine] was tested. Which kcat [1] did it give?
**A.** The kcat was 21.90 ± 2.73 s⁻¹.

**Q.** What about the kcat/Km [1] of the same compound?
**A.** Its kcat/Km is 64170 ± 25500 M⁻¹ s⁻¹.

**Q.** And the kcat [2]?
**A.** Its kcat is 22.91 ± 2.12 s⁻¹.

**Q.** And the kcat/Km [2]?
**A.** The kcat/Km was 33340 ± 10160 M⁻¹ s⁻¹.
